Test results as given in ChEMBL document CHEMBL3044663, “Synthesis and antimicrobial activities of novel bisacridine-1,8-dione derivatives” (2011).
Calls of active or inactive are those of the source. No cut-off for these calls is given here.

Assays:
Type in all cases: functional
Candida albicans = assay: Antifungal activity against Candida albicans 16231 after 24 hr by disk diffusion method; for DIZ: test concentration or dose not given here
Saccharomyces cerevisiae = assay: Antifungal activity against Saccharomyces cerevisiae TP (3-2) after 24 hr by disk diffusion method; note: test concentration or dose not given here
Pseudomonas aeruginosa = assay: Antibacterial activity against Pseudomonas aeruginosa ATCC 27853 after 24 hr by disk diffusion method; for DIZ: test concentration or dose not given here
[1] = tested on: Staphylococcus epidermidis; assay: Antibacterial activity against Staphylococcus epidermidis Mu 30 after 24 hr by disk diffusion method; note: test concentration or dose not given here
Escherichia coli = assay: Antibacterial activity against Escherichia coli ATCC 35218 after 24 hr by disk diffusion method; for DIZ: test concentration or dose not given here
Bacillus cereus = assay: Antibacterial activity against Bacillus cereus RSKK 863 after 24 hr by disk diffusion method; note: test concentration or dose not given here
Staphylococcus aureus = assay: Antibacterial activity against Staphylococcus aureus ATCC 25923 after 24 hr by disk diffusion method; note: test concentration or dose not given here
Salmonella = assay: Antibacterial activity against Salmonella 21.3 after 24 hr by disk diffusion method; for DIZ: test concentration or dose not given here
Bacillus subtilis = assay: Antibacterial activity against Bacillus subtilis RSKK 240 after 24 hr by disk diffusion method; note: test concentration or dose not given here
Shigella sonnei = assay: Antibacterial activity against Shigella sonnei RSKK 877 after 24 hr by disk diffusion method; for DIZ: test concentration or dose not given here; for diameter of the inhibition zone (DIZ): test concentration or dose not given here

Compound	diameter of the inhibition zone (DIZ) (Candida albicans)	diameter of the inhibition zone (DIZ) (Saccharomyces cerevisiae)	diameter of the inhibition zone (DIZ) (Pseudomonas aeruginosa)	diameter of the inhibition zone (DIZ) [1]	diameter of the inhibition zone (DIZ) (Escherichia coli)	diameter of the inhibition zone (DIZ) (Bacillus cereus)	diameter of the inhibition zone (DIZ) (Staphylococcus aureus)	diameter of the inhibition zone (DIZ) (Salmonella)	diameter of the inhibition zone (DIZ) (Bacillus subtilis)	diameter of the inhibition zone (DIZ) (Shigella sonnei)	inhibition zone (IZ) (Pseudomonas aeruginosa)	inhibition zone (IZ) (Escherichia coli)	inhibition zone (IZ) (Salmonella)	inhibition zone (IZ) (Shigella sonnei)
Cc1cccc(N2C3=C(C(=O)CCC3)C(c3cccc(C4C5=C(CCCC5=O)N(c5cccc(C)n5)C5=C4C(=O)CCC5)c3)C3=C2CCCC3=O)n1	14 mm	17 mm	9 mm	8 mm	12 mm	inactive	18 mm	9 mm	inactive	9 mm				
CC(=O)N1CCN(c2ccc(OCC3COC(Cn4ccnc4)(c4ccc(Cl)cc4Cl)O3)cc2)CC1 (configuration not stated) [KETOCONAZOLE]	21 mm	24 mm												
CC1(C)CC(=O)C2=C(C1)N(c1cccc(C(=O)O)c1)C1=C(C(=O)CC(C)(C)C1)C2c1cccc(C2C3=C(CC(C)(C)CC3=O)N(c3cccc(C(=O)O)c3)C3=C2C(=O)CC(C)(C)C3)c1	16 mm	16 mm	9 mm	inactive	9 mm	8 mm	10 mm	11 mm	9 mm	10 mm				
CC1(C)CC(=O)C2=C(C1)N(c1ccc(C(=O)O)cc1)C1=C(C(=O)CC(C)(C)C1)C2c1cccc(C2C3=C(CC(C)(C)CC3=O)N(c3ccc(C(=O)O)cc3)C3=C2C(=O)CC(C)(C)C3)c1	12 mm	13 mm	inactive	11 mm	10 mm	9 mm	inactive	9 mm	11 mm	11 mm				
N#Cc1cccc(N2C3=C(C(=O)CCC3)C(c3cccc(C4C5=C(CCCC5=O)N(c5cccc(C#N)c5)C5=C4C(=O)CCC5)c3)C3=C2CCCC3=O)c1	27 mm	17 mm	10 mm	inactive	8 mm	inactive	9 mm	10 mm	inactive	12 mm				
COc1ccccc1N1C2=C(C(=O)CCC2)C(c2cccc(C3C4=C(CCCC4=O)N(c4ccccc4OC)C4=C3C(=O)CCC4)c2)C2=C1CCCC2=O	inactive	inactive	inactive	inactive	inactive	inactive	inactive	inactive	inactive	inactive				
COc1ccccc1N1C2=C(C(=O)CC(C)(C)C2)C(c2cccc(C3C4=C(CC(C)(C)CC4=O)N(c4ccccc4OC)C4=C3C(=O)CC(C)(C)C4)c2)C2=C1CC(C)(C)CC2=O	15 mm	14 mm	10 mm	13 mm	14 mm	13 mm	9 mm	8 mm	8 mm	12 mm				
CC1(C)CC(=O)C2=C(C1)N(c1ccccc1C#N)C1=C(C(=O)CC(C)(C)C1)C2c1cccc(C2C3=C(CC(C)(C)CC3=O)N(c3ccccc3C#N)C3=C2C(=O)CC(C)(C)C3)c1	14 mm	14 mm	9 mm	9 mm	12 mm	inactive	12 mm	9 mm	inactive	10 mm				
CC1(C)S[C@@H]2[C@H](NC(=O)[C@H](N)c3ccccc3)C(=O)N2[C@H]1C(=O)O [AMPICILLIN]					27 mm	20 mm	24 mm	23 mm	24 mm	22 mm				
O=C1CCCC2=C1C(c1cccc(C3C4=C(CCCC4=O)N(c4ccc(C(=O)O)cc4)C4=C3C(=O)CCC4)c1)C1=C(CCCC1=O)N2c1ccc(C(=O)O)cc1	10 mm	inactive	10 mm	12 mm	9 mm	inactive	11 mm	8 mm	8 mm	9 mm				
N#Cc1ccccc1N1C2=C(C(=O)CCC2)C(c2cccc(C3C4=C(CCCC4=O)N(c4ccccc4C#N)C4=C3C(=O)CCC4)c2)C2=C1CCCC2=O	13 mm	20 mm	14 mm	10 mm	8 mm	inactive	10 mm	11 mm	inactive	10 mm				
CC1(C)CC(=O)C2=C(C1)N(c1ccc(Cl)cc1)C1=C(C(=O)CC(C)(C)C1)C2c1ccc(C2C3=C(CC(C)(C)CC3=O)N(c3ccc(Cl)cc3)C3=C2C(=O)CC(C)(C)C3)cc1	10 mm	14 mm	9 mm	7 mm	12 mm	inactive	9 mm	12 mm	inactive	10 mm				
CC1(C)CC(=O)C2=C(C1)N(c1ccc(Br)cc1)C1=C(C(=O)CC(C)(C)C1)C2c1ccc(C2C3=C(CC(C)(C)CC3=O)N(c3ccc(Br)cc3)C3=C2C(=O)CC(C)(C)C3)cc1	11 mm	16 mm	10 mm	10 mm	10 mm	inactive	12 mm	10 mm	inactive	12 mm				
COc1cccc(N2C3=C(C(=O)CC(C)(C)C3)C(c3cccc(C4C5=C(CC(C)(C)CC5=O)N(c5cccc(OC)c5)C5=C4C(=O)CC(C)(C)C5)c3)C3=C2CC(C)(C)CC3=O)c1	inactive	inactive	7 mm	inactive	10 mm	13 mm	inactive	inactive	inactive	12 mm				
CC1(C)CC(=O)C2=C(C1)N(c1cccc(C#N)c1)C1=C(C(=O)CC(C)(C)C1)C2c1cccc(C2C3=C(CC(C)(C)CC3=O)N(c3cccc(C#N)c3)C3=C2C(=O)CC(C)(C)C3)c1	16 mm	14 mm	8 mm	8 mm	13 mm	inactive	10 mm	10 mm	inactive	9 mm				
O=C1CCCC2=C1C(c1cccc(C3C4=C(CCCC4=O)N(c4cccc(C(=O)O)c4)C4=C3C(=O)CCC4)c1)C1=C(CCCC1=O)N2c1cccc(C(=O)O)c1	14 mm	11 mm	9 mm	inactive	12 mm	8 mm	inactive	11 mm	9 mm	inactive				
COc1cccc(N2C3=C(C(=O)CCC3)C(c3cccc(C4C5=C(CCCC5=O)N(c5cccc(OC)c5)C5=C4C(=O)CCC5)c3)C3=C2CCCC3=O)c1	12 mm	11 mm	9 mm	11 mm	14 mm	inactive	16 mm	12 mm	11 mm	10 mm				
GENTAMICIN											20 mm	15 mm	10 mm	11 mm
